This note sets out measurements from ChEMBL document CHEMBL4433249, “New sensible method to quantize the intestinal absorption of receptor ligands” (Bioorg Med Chem, 2019).

Series [1] can be described thus: Drug absorption in Wistar rat everted gut sac at 300 nM. Particulars: 0.3 µM. It is filed as ADME, tissue-based, Intestine.
Series [2] is described as follows: Drug retention in Wistar rat everted gut sac at 3000 nM. It is filed as ADME, tissue-based, Intestine. Particulars: 3 µM.
Series [3] is described as follows: Drug absorption in Wistar rat small intestinal serosal fluid assessed as displacement of [3H]HEMADO from recombinant human A3 receptor expressed in CHO cells at 1000 nM exposed to serosal fluid derived from 60 mins compound treated sac followed by further incubation for 3 hrs by scintillation counting based radioligand binding assay. It is filed as cell-based. Particulars: 1 µM. A general note: Displacement assays read how much labelled ligand stays bound in the presence of the test substance.

The nature of series [4]: Drug absorption in Wistar rat small intestinal mucosal fluid assessed as displacement of [3H]HEMADO from recombinant human A3 receptor expressed in CHO cells at 3000 nM exposed to mucosal fluid derived from 60 mins compound treated sac followed by further incubation for 3 hrs by scintillation counting based radioligand binding assay. It is filed as cell-based, Mucosa of small intestine. Particulars: 3 µM.

A short description of series [5]: Drug absorption in Wistar rat small intestinal mucosal fluid assessed as displacement of [3H]HEMADO from recombinant human A3 receptor expressed in CHO cells at 10000 nM exposed to mucosal fluid derived from 60 mins compound treated sac followed by further incubation for 3 hrs by scintillation counting based radioligand binding assay. Format: cell-based, Mucosa of small intestine. Particulars: 10 µM.

The nature of series [6]: Drug retention in Wistar rat everted gut sac at 10000 nM. Format: ADME, tissue-based, Intestine. The note with it: 10 µM.
Series [7] is described as follows: Drug absorption in Wistar rat small intestinal mucosal fluid assessed as displacement of [3H]HEMADO from recombinant human A3 receptor expressed in CHO cells at 1000 nM exposed to mucosal fluid derived from 60 mins compound treated sac followed by further incubation for 3 hrs by scintillation counting based radioligand binding assay. Format: cell-based, Mucosa of small intestine. The note with it: 1 µM.

Series [8] can be described thus: Apparent permeability of the compound across Wistar rat everted gut sac at 10000 nM. It is filed as ADME, tissue-based, Intestine.
A short description of series [9]: Drug absorption in Wistar rat small intestinal serosal fluid at 10000 nM incubated for 60 mins by HPLC-DAD analysis. Format: ADME. The note with it: 1 h, 10 µM.
Series [10] in a line: Drug absorption in Wistar rat small intestinal serosal fluid assessed as displacement of [3H]HEMADO from recombinant human A3 receptor expressed in CHO cells at 3000 nM exposed to serosal fluid derived from 60 mins compound treated sac followed by further incubation for 3 hrs by scintillation counting based radioligand binding assay. It is filed as cell-based. The note with it: 3 µM.

A short description of series [11]: Apparent permeability of the compound across Wistar rat everted gut sac at 3000 nM. Format: ADME, tissue-based, Intestine.
Series [12] is described as follows: Drug retention in Wistar rat everted gut sac at 1000 nM. The note with it: 1 µM. Format: ADME, tissue-based, Intestine.
Series [13] in a line: Drug absorption in Wistar rat small intestinal serosal fluid assessed as displacement of [3H]HEMADO from recombinant human A3 receptor expressed in CHO cells at 10000 nM exposed to serosal fluid derived from 60 mins compound treated sac followed by further incubation for 3 hrs by scintillation counting based radioligand binding assay. Format: cell-based. The note with it: 10 µM.

Series [14] can be described thus: Drug absorption in Wistar rat small intestinal serosal fluid assessed as displacement of [3H]HEMADO from recombinant human A3 receptor expressed in CHO cells at 300 nM exposed to serosal fluid derived from 60 mins compound treated sac followed by further incubation for 3 hrs by scintillation counting based radioligand binding assay. Particulars: 0.3 µM. It is filed as cell-based.

Series [15] can be described thus: Apparent permeability of the compound across Wistar rat everted gut sac at 1000 nM. Format: ADME, tissue-based, Intestine.
A short description of series [16]: Drug absorption in Wistar rat everted gut sac at 1000 nM. Format: ADME, tissue-based, Intestine. Particulars: 1 µM.
Series [17] can be described thus: Drug retention in Wistar rat everted gut sac at 300 nM. It is filed as ADME, tissue-based, Intestine. The note with it: 0.3 µM.
Series [18] can be described thus: Drug absorption in Wistar rat small intestinal mucosal fluid assessed as displacement of [3H]HEMADO from recombinant human A3 receptor expressed in CHO cells at 300 nM exposed to mucosal fluid derived from 60 mins compound treated sac followed by further incubation for 3 hrs by scintillation counting based radioligand binding assay. It is filed as cell-based, Mucosa of small intestine. The note with it: 0.3 µM.

Series [19] in a line: Drug absorption in Wistar rat small intestinal serosal fluid at 3000 nM incubated for 60 mins by HPLC-DAD analysis. It is filed as ADME. Particulars: 1 h, 3 µM.
Series [20] in a line: Apparent permeability of the compound across Wistar rat everted gut sac at 300 nM. It is filed as ADME, tissue-based, Intestine.
Series [21] can be described thus: Drug absorption in Wistar rat everted gut sac at 3000 nM. Format: ADME, tissue-based, Intestine. The note with it: 3 µM.
A short description of series [22]: Drug absorption in Wistar rat everted gut sac at 10000 nM. It is filed as ADME, tissue-based, Intestine. Particulars: 10 µM.

For orientation: Papp means the rate of passage across a membrane or cell layer, normalised by area and donor concentration. For the molecule `CNC(=O)[C@H]1O[C@@H](n2cnc3c(NC)nc(C#Cc4ccccc4)nc32)[C@H](O)[C@@H]1O`, the Drug absorption came out at 12% in series [1]; 119 nM in [3]; 857 nM in series [4]; 2088 nM in series [5]; 224 nM in series [7]; 2000 nM in series [9]. Besides, the Drug absorption worked out at 373 nM in [10]; 1180 nM in series [13]; 36 nM in series [14]; 11.9% in series [16]; 133 nM in series [18]; 550 nM in [19]. The Drug absorption came to 12.4% in series [21] and 11.8% in [22]. Besides, the Drug uptake in series [2] is reported as 59%; in [6], 67%; in series [12] it was 65%; in series [17], 44%. The apparent permeability (Papp) at 10 µM in series [8] came to 8.4 ×10⁻⁶ cm/s. For the same molecule, the Papp at 3 µM in series [11] turned out to be 8.5 ×10⁻⁶ cm/s. In addition, in series [15], the apparent permeability coefficient (Papp) at 1 µM is 8.4 ×10⁻⁶ cm/s. Moreover, the Papp at 0.3 µM in series [20] amounted to 8.5 ×10⁻⁶ cm/s.
